Laboratory results reported in patent publication US20230146422A1, “ANIMAL MODEL FOR STUDYING CANCER IMMUNOTHERAPY” (ONCOFACTORY, priority 2020, published 2023).

What was measured:
[1] = tested on: MDAMB 231 tumoral cells; assay: Tumor volume in avian embryo co-grafted with MDAMB 231 cells and human PBMCs (FIG. 12B); assay type: in vivo; conditions: MDAMB 231 + human PBMCs co-graft, vs NaCl, raw and BSA-normalized
Description: (§1) The same experiment of example 9 was performed with other cancer cells: • MDAMB 231, well-known to be responsive to immunotherapy, and • a tumor sample issued from a patient affected by a metastatic melanoma.

[2] = tested on: tumor sample from a patient affected by a metastatic melanoma; assay: Metastasis number and volume in avian embryo co-grafted with human PBMCs and patient metastatic melanoma sample (FIG. 12C); assay type: in vivo; conditions: patient metastatic melanoma sample + human PBMCs co-graft, vs NaCl
Description: Metastasis number (on the left) and volume of metastatic tumors (in the middle) have been assessed. On the right, pictures show the extension of the tumor after NaCl treatment (on top) and after Keytruda treatment (on the bottom).
as §1
Also, the number of metastases formed by patient tumoral cells in the avian embryonic tissues has been assessed by the following of fluorescently-labelled tumor cells, and subsequent quantification of the fluorescent signal in the embryo.

[3] = tested on: T lymphocytes of PBMCs co-grafted with MDAMD231 tumoral cells; assay: Activation and exhaustion markers on immune cells co-grafted with MDAMD231 cells in avian embryo, Keytruda treatment (FIG. 11D); assay type: in vivo, human; conditions: PBMCs co-grafted with MDAMD231, Keytruda 5 mg/ml, 24 hours, vs NaCl
From the text: Expression of activation and exhaustion markers on co-grafted immune cells was quantified.

[4] = tested on: human melanoma A375 cell line; assay: Tumor volume in avian embryo co-grafted with A375 melanoma cells and human PBMCs (FIG. 12A); assay type: in vivo; conditions: A375 + human PBMCs co-graft, Keytruda injected 24 hours post-grafting, vs excipient, two to three days post-grafting
Description: To determine whether tumors composed of mixed human tumoral cells and immune cells are sensitive to anti-PD1 antibody treatment, the human melanoma A375 cell line was selected for the experiments. Indeed, this cell line was recently reported to express significant levels of PDL1 and to respond to anti-PD1 immunotherapy (Kuryk L, Møller A W, Jaderberg M, 2019).
A375 melanoma cells were cultured and co-grafted with human PBMC cells as previously described.
Two to three days post-grafting, embryos were collected and processed for imaging with a confocal light sheet microscope. The volume of the tumors was quantified using IMARIS software.

[5] = tested on: CD4 and CD8 T cells of grafted human PBMCs; assay: Activation and exhaustion markers on T cells of PBMCs grafted or co-grafted with MDAMB436 cells in avian embryo, with or without Keytruda (FIG. 11C); assay type: in vivo; conditions: FACS 48 hours post-grafting
Description: (11C) PBMC were co-grafted with tumoral cells: Pmela (a PDL1 negative cell line) or MDAMB436 (a PDL1 weak positive cell line).
Markers of activation (CD69, HLADR on the left) and exhaustion (CTLA4, PD1, on the right) were determined in PBMCs after co-grafting with human tumoral cells (Pmela or MDAM) in an avian embryo. Values are expressed in frequency over CD4+ and CD8+ populations in ratios of total identified lymphocytes (CD3+CD4+ and CD3+CD8+). Standard Deviations show data from a pool of PBMC from different healthy donors. Left Graph: CD4+, right graph: CD8+.
Then, MDAMB436 cells or Pmela cells were co-grafted with human PBMC cells.
At two days (48 hours) post-grafting, PBMCs were isolated from grafted embryos and analyzed by FACS.
Finally, grafted PBMCs were isolated by Percoll density separation and stained cells for markers of activation (CD69/HLADR) and exhaustion (CTLA4/PD1).
Standard Deviations show data from a pool of PBMC from different healthy donors. Values are expressed in ratios of the specific marker over CD3+CD4+ and CD3+CD8+ populations.

**Q.** How did the tumor volume [1] turn out when Pemzolibrumab [Keytruda] was run?
**A.** significant reduction

**Q.** What about the “metastasis number (ability of tumor cells to metastasis)” value [2] of the same substance?
**A.** significantly decreased

**Q.** And the metastatic-volume [2]?
**A.** significant reduction

**Q.** What about the “expression of exhaustion marker PD1” value [3] of the same substance?
**A.** decreased

**Q.** What about the “expression of exhaustion marker TIM-3” value [3] of the same substance?
**A.** decreased

**Q.** What about the “volume of the tumor” value [4] of the same substance?
**A.** decreases significantly

**Q.** What about the “levels of CTLA4 on the CD8 compartment” value ([5]; embryo treated 24 hours with Keytruda (PD1 blocking)) of the same substance?
**A.** very high levels

**Q.** What about the “PD1 expression/accessibility on CD8 T cells” value ([5]; embryo treated 24 hours with Keytruda) of the same substance?
**A.** minimization
